Data: US8609718B2, “Pharmaceutical composition used in treatment of hyperproliferative skin conditions and malignant melanomas comprising pachastrissamine as active ingredient” (Catholic University Industry Academy Cooperation Foundation, priority 2009, dated 2013)

How the values were obtained:
[1] = test system: ERK; assay: Western blotting of EGF-induced ERK activity in HEK293T; format: cell-based; conditions: with 100 μg/ml of EGF, FIG. 3D
Procedure: In the same manner, in a sample of HEK293T (Kidney epithelial cell) cell line treated with pachastrissamine and 100 μg/ml of EGF (epidermal growth factor), ERK activity was determined (see FIG. 3D).

[2] = test system: B16F10 cell line; assay: Cell counting by hemocytometer, trypan blue exclusion, B16F10; format: cell-based; conditions: 24 hours
Procedure: (§1) A HaCaT cell line was cultured in the same manner as described in Example 1. The cultured HaCaT cell line was plated onto a 60 mm plate at a concentration of 5×10^4 cells/well, and cultured in a CO2 incubator (37° C., 5%) for 24 hours. The cultured cells in respective plates were treated with pachastrissamine at a concentration of 10 μg/ml, and cultured in a CO2 incubator (37° C., 5%) for 24, 36, and 48 hours, respectively. After the culturing, the cells were washed with PBS, treated with trypsin-EDTA, and completely detached from the plate. Then, a hemocytometer was used to count the cells through trypan blue exclusion.
(§2) HaCaT, B16F10 and A375 cell lines were cultured in the same manner as described in Example 1. The cultured HaCaT cell line was plated onto a 60 mm plate at a concentration of 5×10^4 cells/well, and cultured in a CO2 incubator (37° C., 5%) for 24 hours. The cultured respective cells were divided into 4 groups. […] These groups were cultured in a CO2 incubator (37° C., 5%) for 24 hours, and then the number of cells were measured in the same manner as described in Example 2-2.

[3] = test system: malignant melanoma cell line A375; assay: MTT cell viability analysis (cytotoxicity), A375; format: cell-based; conditions: 24 hours, FIG. 1
Procedure: (§3) Pachastrissamine's cytotoxicity on a HaCaT cell line and a malignant melanoma cell line was researched through MTT cell viability analysis.
(§4) First, each of a HaCaT cell line (German Cancer Research, obtained from prof. N. Fuseni, Germany), and two kinds of malignant melanoma cell lines, B16F10 (B16) and A375 were inoculated into a DMEM (Dulbecco's Modified Eagle's Medium) culture medium added with 10% FBS (Thermo Fisher Scientific Inc.), 100 unit/ml penicillin, and 100 μg/ml streptomycin, and then cultured in a CO2 incubator (Form a Scientific, Inc.) (37° C., 5%).
(§5) The cultured HaCaT, B16F10, and A375 cells were plated onto a 96-well plate at a concentration of 5×10^4 cells/well, and cultured in a CO2 incubator (37° C., 5%) for 24 hours. The cells in respective wells were treated with pachastrissamine and phytosphingosine at various concentrations of 0, 0.9, 1.8, 3.7, 7.5, 10 μg/ml, and cultured in a CO2 incubator (37° C., 5%) for 24 hours. After the culturing, in a state where the culture medium existed, each well was added with 5 mg/ml MTT reagent at a concentration of 20 μl/[…], and cultured in an incubator for 2 hours. After 2 hours, the culture medium was removed, and each well was added with 150 μl of DMSO (dimethyl sulfoxide). Then, a spectrophotometer was used to measure the absorbance at 540 nm, thereby analyzing the cell viability. Herein, the cell viability was represented as a relative value with respect to 100% of cell viability in a control group not treated with pachastrissamine and phytosphingosine.

[4] = test system: ERK and FoxO3a; assay: Immunoprecipitation of ERK, binding between ERK and FoxO3a; format: cell-based, human; conditions: HaCaT; 10 μg/ml; 24 hours; anti-ERK immunoprecipitation; FIG. 4F
Procedure: In the same manner, a HaCaT cell line was treated with pachastrissamine, and immunoprecipitation was used to determine the degree of binding between ERK and FoxO3a, and the degree of FoxO3a ubiquitination caused by interaction. In order to carry out immunoprecipitation, the cells were plated on a 100 mm plate, and cultured in a CO2 incubator (37° C., 5%) for 24 hours. After about 12 hours of serum starvation, the cultured cell line was treated with 10 μg/ml of pachastrissamine for 24 hours. The cell line treated with pachastrissamine and another cell line not treated with pachastrissamine were resuspended in the RIPA buffer as described above, and then put on ice for 30 minutes so that the cells could be completely lysed. The lysate was centrifuged at 14000 rpm for 30 minutes, and the supernatant was collected. A BCA protein analysis kit (Pierce, Rockford, Ill.) was used to determine the concentration of each sample, and the samples in the same amount were added with anti-ERK antibody in the same amount, and reacted at 4° C. for 2 hours. Then, each of the samples was added with 10 μl of protein G-agarose (GenDEPOT) and reacted at 4° C. for 10 hours, and then centrifuged at 3000 rpm for 1 minute, washed with RIPA buffer, and centrifuged again. Then, the precipitated protein G-agarose was collected, and electrophoresis was carried out.

[5] = test system: FoxO3a; assay: Western blotting of FoxO3a protein expression in HaCaT; format: cell-based, human
Procedure: A HaCaT cell line was cultured in the same manner as described in Example 1. […] Then, western blotting was carried out by using FoxO3a antibody as a primary antibody.
Then, western blotting was carried out by using FoxO3a antibody as a primary antibody so as to carry out comparative analysis on the level of protein expression.

[6] = test system: GSK3-beta / beta-catenin; assay: Western blotting of pGSK3-beta, GSK3-beta, pCatenin and Catenin in HaCaT; format: cell-based, human; conditions: 30 minutes, FIG. 5A
Procedure: The pachastrissamine's effect on beta-catenin protein expression was researched. In the same manner as described in Example 1, a HaCaT cell line was cultured.

[7] = test system: FoxO3a; assay: FoxO3a immunoprecipitation and ubiquitin western blotting in HEK293T; format: cell-based; conditions: pachastrissamine and EGF
Procedure: Then, immunoprecipitation was carried out using FoxO3a antibody. The sample obtained from immunoprecipitation was subjected to western blotting by using ubiquitin antibody so as to carry out comparative analysis.

[8] = test system: A375 cell line; assay: Cell counting by hemocytometer, trypan blue exclusion, A375; format: cell-based; conditions: 24 hours
Procedure: as §1, §2

[9] = test system: malignant melanoma cell line B16F10; assay: MTT cell viability analysis (cytotoxicity), B16F10; format: cell-based; conditions: 24 hours, FIG. 1
Procedure: as §3, §4, §5

[10] = pachastrissamine 10 μg/ml + lithium chloride 300 nM (PA+Li)
[11] = 0, 0.9, 1.8, 3.7, 7.5, 10 μg/ml
[12] = pachastrissamine 10 μg/ml, LiCl 300 nM

With `CCCCCCCCCCCCCC[C@@H]1OC[C@H](N)[C@@H]1O` [pachastrissamine] the “ERK activity caused by EGF” value [1] was “almost perfectly inhibit the ERK activity caused by EGF”, the “number of cells compared to no treatment” value ([2]; 10 μg/ml, FIGS. 2C, 2D) was “the number of cells was decreased” and the “number of cells with lithium chloride as well as pachastrissamine, compared to only pachastrissamine” value [2, 10] was “the number of cells was higher”. The “cell viability (number of surviving cells) with increasing concentration” value [3, 11] was “the number of surviving cells was reduced”, the “cytotoxicity compared with phytosphingosine” value [3] was “lower cytotoxicity than phytosphingosine” and the “degree of binding between ERK and FoxO3a” value [4] was “significantly decreased”. The “protein expression level of FoxO3a compared to control group” value ([5]; 5 and 10 μg/ml, 24 hours, FIG. 4A) was “increased”, the “extent of protein expression of FoxO3a, pachastrissamine and PD98059 together” value ([5]; pachastrissamine together with PD98059, versus each single material, FIG. 4E) was “it was not found that the extent of protein expression was increased” and the “extent of protein expression of FoxO3a, pachastrissamine and U0126 together” value ([5]; pachastrissamine together with U0126, versus each single material, FIG. 4E) was “significantly increased compared to other samples treated with each single material”. The “level of protein expression of FoxO3a, single material” value ([5]; treated as in Example 3-2, compared to negative control, FIG. 4E) was “the amount of FoxO3a protein was increased”, the beta-catenin protein degradation ([6]; 10 μg/ml) was “induced the degradation of beta-catenin protein” and the “phosphorylation of GSK3-beta” value [6, 12] was “phosphorylation of GSK3-beta was inhibited”. For the same compound, the phosphorylation of beta-catenin [6, 12] was “increasing the phosphorylation of beta-catenin”, the “ubiquitination degree of FoxO3a increased by EGF” value [7] was “decreased” and the “number of cells compared to no treatment” value ([8]; 10 μg/ml, FIGS. 2C, 2D) was “the number of cells was decreased”. For the same compound, the “number of cells with lithium chloride as well as pachastrissamine, compared to only pachastrissamine” value [8, 10] was “the number of cells was higher”, the “cell viability (number of surviving cells) with increasing concentration” value [9, 11] was “the number of surviving cells was reduced” and the “cytotoxicity compared with phytosphingosine” value [9] was “lower cytotoxicity than phytosphingosine”.
